Source: US7235532B2, “Angiogenic agents and their uses” (Centre National de la Recherche Scientfique, priority 2000, dated 2007)

Tests used:
[1] = test system: chick embryo chorioallantoic membrane; test: chick embryo chorioallantoic membrane (CAM) vascularization; format: in vivo
Method: FIGS. 2a, 2b and 2c: Effect of AcSDKP (SEQ ID NO: 1) and of analogues thereof on the vascularization of the chick embryo chorioallantoic membrane (CAM). FIG. 2A discloses SEQ ID NOS: 1 and 27, respectively, in order of appearance.
The following experiments were carried out on the chick embryo chorioallantoic membrane experimental model and the activity of AcSDKP (SEQ ID NO: 1) and of analogues thereof was tested on this model. […] The increase in the density of vascularization varies depending on the dose studied, with a maximum effect for AcSDKP (SEQ ID NO: 1) and AcSDKP-NH2 (SEQ ID NO: 27) at concentrations of between 10^−9 M and 10^−7 M (FIGS. 2a, 2b and 2c).

[2] = test system: endothelial cells originating from bovine brain capillaries (BBC); test: growth of endothelial cells originating from bovine brain capillaries, in vitro; format: cell-based
Text: (§1) FIGS. 1a, 1b and 1c: AcSDKP (SEQ ID NO: 1) stimulates the growth of bovine (BBC) and human (HUVEC and EA.hy926) endothelial cells, in vitro.
(§2) The mitogenic effect of AcSDKP (SEQ ID NO: 1) manifests itself at concentrations ranging between 10^−6 and 10^−11 M, with a maximum for 10^−9 M.

[3] = test system: human umbilical cord vein endothelial cells (HUVEC); test: growth of human umbilical cord vein endothelial cells, in vitro; format: cell-based
Text: as §1, §2

[4] = test system: immortalized HUVEC cell line (EA.hy926); test: growth of immortalized HUVEC cell line, in vitro; format: cell-based, human
Text: as §1, §2

[5] = test system: total marrow cells; test: adhesion of marrow cells to components of the extracellular matrix, in vitro; format: cell-based; conditions: fibronectin, collagen IV and laminin
Text: The optimum concentration of AcSDKP (SEQ ID NO: 1) in this type of model is between 10^−6 and 10^−8 M.

[6] = test system: HUVEC human endothelial cells; test: adhesion of HUVEC to extracellular matrix components, preliminary experiments; format: cell-based; conditions: compared with marrow cell results
Text: It is clearly established that these interactions between endothelial cells and the extracellular matrix are determinant for the neovascularization and are involved at various steps of angiogenesis. Specifically, the extracellular matrix influences the proliferation and the migration of vascular endothelial cells, and also their ability to differentiate and to organize into capillaries in order to form new functional vessels suited to their tissue microenvironment.

[7] = test system: normal rats; test: angiography of abdominal walls after injection into abdominal muscle; format: in vivo, rat
Method: In these experiments, AcSDKP (SEQ ID NO: 1) was injected into the abdominal muscle in normal rats (treatment twice a day for […]). […] It should be emphasized that this effect remains over time (observations made one month after the start of treatment).

[8] = test system: endothelial cells (EA.hy926); test: formation of vascular tubes in Matrigel in vitro; format: cell-based, human; conditions: 6 hours exposure
Method: FIG. 3: Effect of AcSDKP (SEQ ID NO: 1) on the formation of vascular tubes, in vitro, by endothelial cells (EA.hy926) in Matrigel.
The maximum stimulations, corresponding to an increase of 60% and 58%, respectively, were observed after exposure of the cells to the tetrapeptide for 6 hours.

[9] = test system: Sprague-Dawley rat; test: vascular invasion in vivo of Matrigel placed under the skin
Text: In vivo, AcSDKP (SEQ ID NO: 1) induces, in a dose-dependent manner, the vascular invasion of Matrigel placed under the skin of the animal (Sprague-Dawley rat). In this experiment, AcSDKP (SEQ ID NO: 1) was mixed with the Matrigel before implantation. Seven days later, the animals were sacrificed and the Matrigel samples were taken and fixed in formol, and were the subject of a histological study. […] For the quantification, the vascular sections were counted on 10 consecutive fields (surface area =32 mm^2) from the richest zone.

[10] = test system: Sprague-Dawley rats; test: pedicled ventral skin flap model; format: in vivo, rat; conditions: 5 μg/kg/injection s.c., after surgery then 5 times at 12 hour intervals
Text: Given the ability of angiogenic factors to stimulate, in vivo, the formation of new vessels in lesioned regions which are characterized by a deficiency in vascularization, we studied the effectiveness of AcSDKP (SEQ ID NO: 1) in promoting tissue lesion repair, using a skin flap model. In fact, the distal necrosis of skin flaps generally results from rupturing of the vascular network and therefore from an insufficiency of arterial flow, which poses considerable problems in the fields of plastic and reconstructive surgery.
Pedicled ventral skin flaps (6×6 cm) (left inguinal pedicle) were made in the Sprague-Dawley rats.
AcSDKP (SEQ ID NO: 1) was administered at the dose of 5 μg/kg/ injection (250 μl/injection) immediately after the surgical intervention, and then again 5 times at 12 hour intervals. […] From a macroscopic point of view, the decrease in necrosis is accompanied by the increase in the density of the vascularization over the internal surface of the flaps.

**Q.** With CH3CO-Ser-Asp-Lys-Pro-NH2 [AcSDKP-NH2] as the substance, how does the “neovascularization of CAM” value [1] read?
**A.** significantly induced neovascularization

**Q.** What does the source list for “CH3CO-Ser-Asp-Lys-Pro-OH (Ac-SDKP-OH) [AcSDKP, tetrapeptide acetyl-Ser-Asp-Lys-Pro]”?
**A.** concentration of maximum mitogenic effect [2]: 10^−9 M; growth of endothelial cells ([2]; in vitro): significantly stimulates the growth; concentration of maximum mitogenic effect [3]: 10^−9 M; growth of endothelial cells ([3]; in vitro): significantly stimulates the growth; concentration of maximum mitogenic effect ([4]; EA.hy926): 10^−9 M; growth of endothelial cells ([4]; EA.hy926, in vitro): significantly stimulates the growth; adhesion of marrow cells to extracellular matrix components [5]: increases the adhesion; adhesion to extracellular matrix components [6]: Comparable results; neovascularization of CAM [1]: significantly induced neovascularization; vascularization of abdominal walls (angiography) ([7]; 5 μg/kg/injection into abdominal muscle, twice a day, sacrifice day 8): more developed vascularization; vascularization of abdominal walls (angiography) ([7]; 50 μg/kg/injection into abdominal muscle): No significant modification of the vascularization; increase of total surface area of the vascular network compared to control (maximum stimulation) ([8]; 10^−9 M): 60%; increase of total surface area of the vascular network compared to control (maximum stimulation) ([8]; 10^−11 M): 58%; Number of vessels (% increase compared to control) ([9]; 10^−5 M, Exp. 1): 60%; Number of vessels (% increase compared to control) ([9]; 10^−5 M, Exp. 2): 185%; Number of vessels (% increase compared to control) ([9]; 10^−6 M, Exp. 2): 121%; Number of vessels (% increase compared to control) ([9]; 10^−7 M, Exp. 1): 294%; Number of vessels (% increase compared to control) ([9]; 10^−7 M, Exp. 2): 118%; Number of vessels (% increase compared to control) ([9]; 10^−7 M, Exp. 3): 139%; Number of vessels (% increase compared to control) ([9]; 10^−8 M, Exp. 2): 223%; Number of vessels (% increase compared to control) ([9]; 10^−9 M, Exp. 1): 108%; Number of vessels (% increase compared to control) ([9]; 10^−9 M, Exp. 2): 61%; Number of vessels (% increase compared to control) ([9]; 10^−9 M, Exp. 3): 197%; vessels within the Matrigel compared to control Matrigel ([9]; mixed with Matrigel before implantation, 7 days): much greater number of vessels; increase in survival of the flaps compared to the controls [10]: 10%

**Q.** With “FGFb: fibroblast growth factor used as comparison angiogenic factor” as the substance, how does the “Number of vessels (% increase compared to control)” value ([9]; 50 ng/ml, Exp. 2) read?
**A.** 297%
